Measurements taken from patent US10125118B2, “Heteroaryl compounds and their use as therapeutic drugs” (Dong-A Socio Holdings Co., Ltd., priority 2015, dated 2018).
pIC50: −log10 of the molar value.

Tests used:
[1] = system: CD8-MerTK in Ba/F3-CDM cells; assay: In cell MER kinase assay, Ba/F3-CDM cell proliferation without IL-3 (Celltiter-Glo); assay type: cell-based, murine; settings: 48 hours compound treatment, read-out: Cell growth inhibition (GI50)
Procedure, shortened: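 Ba/F3 cells, IL-3-dependent, transfected with CD8-MerTK and grown without IL-3 in DMEM/10% FBS. IL-3-supplemented Ba/F3 cells run in parallel as a cytotoxicity control.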

[2] = target: human c-MER catalytic domain (Homo sapiens (Human), UniProt Q12866); assay: LanthaScreen TR-FRET kinase assay, c-MER; settings: read-out: Mer TK inhibition (IC50); Biochemical IC50, TR-FRET, 10 uM ATP
Sequence of human c-MER catalytic domain (Q12866 587-858): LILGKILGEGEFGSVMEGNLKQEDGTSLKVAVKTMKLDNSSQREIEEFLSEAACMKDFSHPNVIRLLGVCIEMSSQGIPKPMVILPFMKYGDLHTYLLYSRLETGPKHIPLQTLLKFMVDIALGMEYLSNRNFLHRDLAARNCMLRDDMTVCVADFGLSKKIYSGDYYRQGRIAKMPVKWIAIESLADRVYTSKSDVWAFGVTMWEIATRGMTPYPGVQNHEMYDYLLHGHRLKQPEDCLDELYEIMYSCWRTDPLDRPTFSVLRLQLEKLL

SMILES: CN1CCN(Cc2ccc(-c3ccc(CO[C@H]4CCC[C@@H]4NC(=O)c4cc(-c5ccc(F)cc5)cnc4N)cc3)cc2)CC1 [Example 363, 2-amino-5-(4-fluorophenyl)-N-((1S,2S)-2-((4′-((4-methylpiperazin-1-yl)methyl)-[1,1′-biphenyl]-4-yl)methoxy)cyclopentyl)nicotinamide]
- GI50 [1]: 100 to 500 nM
- pIC50 [2]: > 8.00

SMILES: CN1CCN(Cc2ccc(-c3ccc(CO[C@H]4CCC[C@@H]4NC(=O)c4cc(-c5ccc(F)c(F)c5)cnc4N)cc3)cc2)CC1 [Example 364]
- GI50 [1]: < 100 nM
- pIC50 [2]: > 8.00

SMILES: CN1CCC(n2cc(-c3cnc(N)c(C(=O)N[C@H]4CCC[C@@H]4OCc4ccc(-c5ccc(CN6CCN(C)CC6)cc5)cc4)c3)cn2)CC1 [Example 366, 2-amino-N-((1S,2S)-2-((4′-((4-methylpiperazin-1-yl)methyl)-[1,1′-biphenyl]-4-yl)methoxy)cyclopentyl)-5-(1-(1-methylpiperidin-4-yl)-1H-pyrazol-4-yl)nicotinamide]
- GI50 [1]: < 100 nM
- pIC50 [2]: > 8.00

SMILES: CN1CCN(Cc2ccc(-c3ccc(CO[C@H]4CCC[C@@H]4NC(=O)c4cc(-c5ccc(N6CCN(C)CC6)cc5)cnc4N)cc3)cc2)CC1 [Example 367, 2-amino-N-((1S,2S)-2-((4′-((4-methylpiperazin-1-yl)methyl)-[1,1′-biphenyl]-4-yl)methoxy)cyclopentyl)-5-(4-(4-methylpiperazin-1-yl)phenyl)-nicotinamide]
- GI50 [1]: < 100 nM
- pIC50 [2]: > 8.00

SMILES: CN1CCN(Cc2ccc(-c3ccc(CO[C@H]4CCC[C@@H]4NC(=O)c4cc(-c5ccc(CN6CCN(C)CC6)cc5)cnc4N)cc3)cc2)CC1 [Example 368]
- GI50 [1]: < 100 nM
- pIC50 [2]: > 8.00

SMILES: CN1CCN(Cc2ccc(-c3ccc(CO[C@H]4CCC[C@@H]4NC(=O)c4cc(-c5ccc(CO)cc5)cnc4N)cc3)cc2)CC1 [Example 369, 2-amino-5-(4-(hydroxymethyl)phenyl)-N-((1S,2S)-2-((4′-((4-methylpiperazin-1-yl)methyl)-[1,1′-biphenyl]-4-yl)methoxy)cyclopentyl)nicotinamide]
- GI50 [1]: < 100 nM
- pIC50 [2]: > 8.00

SMILES: Cc1cccc(-c2cnc(N)c(C(=O)N[C@H]3CCC[C@@H]3OCc3ccc(-c4ccc(CN5CCN(C)CC5)cc4)cc3)c2)c1 [Example 370, 2-amino-N-((1S,2S)-2-((4′-((4-methylpiperazin-1-yl)methyl)-[1,1′-biphenyl]-4-yl)methoxy)cyclopentyl)-5-(m-tolyl)nicotinamide]
- GI50 [1]: < 100 nM
- pIC50 [2]: > 8.00

SMILES: CN1CCN(Cc2ccc(-c3ccc(CO[C@H]4CCC[C@@H]4NC(=O)c4cc(-c5ccccc5)cnc4N)cc3)cc2)CC1 [Example 371, 2-amino-N-((1S,2S)-2-((4′-((4-methylpiperazin-1-yl)methyl)-[1,1′-biphenyl]-4-yl)methoxy)cyclopentyl)-5-phenylnicotinamide]
- GI50 [1]: < 100 nM
- pIC50 [2]: > 8.00

SMILES: CN1CCN(Cc2ccc(-c3ccc(CO[C@H]4CCC[C@@H]4NC(=O)c4cc(-c5ccc(O)cc5)cnc4N)cc3)cc2)CC1 [Example 372]
- GI50 [1]: < 100 nM
- pIC50 [2]: > 8.00

SMILES: Cc1cnc(N)c(C(=O)N[C@H]2CCC[C@@H]2OCc2ccc(-c3ccc(CN4CCN(C)CC4)cc3)cc2)c1 [Example 374, 2-amino-5-methyl-N-((1S,2S)-2-((4′-((4-methylpiperazin-1-yl)-methyl)-[1,1′-biphenyl]-4-yl)methoxy)cyclopentyl)nicotinamide]
- GI50 [1]: 100 to 500 nM
- pIC50 [2]: > 8.00

SMILES: CN1CCN(Cc2ccc(-c3ccc(CO[C@H]4CCC[C@@H]4NC(=O)c4cc(-c5cccnc5)cnc4N)cc3)cc2)CC1 [Example 375, 6-amino-N-((1S,2S)-2-((4′-((4-methylpiperazin-1-yl)methyl)-[1,1′-biphenyl]-4-yl)methoxy)cyclopentyl)-[3,3′-bipyridine]-5-carboxamide]
- GI50 [1]: < 100 nM
- pIC50 [2]: > 8.00

SMILES: COc1ccc(-c2cnc(N)c(C(=O)N[C@H]3CCC[C@@H]3OCc3ccc(-c4ccc(CN5CCN(C)CC5)cc4)cc3)c2)cc1 [Example 376]
- GI50 [1]: < 100 nM
- pIC50 [2]: > 8.00
